Laboratory results taken from patent publication US20240262845A1, “PYRIDINIUM SALTS, METHODS OF MAKING, AND METHODS OF USE” (UNIVERSITY OF WYOMING, priority 2023, published 2024).
“Also recorded” adds a separate entry of the source. Where a name gives a salt, the structure may show the parent alone.

Legend:
[1] = biological target: T1, chymotrypsinogen (Bos taurus, UniProt P00766); experiment: Photochemical labeling of chymotrypsinogen with pyridinium salt (General Procedure B, LC/MS); type: biochemical, bovine; conditions: trypsin digest
T1 construct: α-Chymotrypsinogen A from bovine pancreas; purchased Sigma Aldrich; host or cells: bovine pancreas
Procedure: (§1) General Procedure B: Photochemical Irradiation of Peptides and Proteins: To a 2 mL Pyrex LC/MS vial (Thermo model #03-391-39) were sequentially added solutions containing the desired biomolecule, glutathione (GSH), pyridinium salt, and ammonium acetate (NH4OAc). The resulting solution was diluted to a final volume of 500 μL and then sparged using nitrogen for a minimum of 30 minutes prior to irradiation. The actively sparging solution was then placed in an EvoluChem™ PhotoRedOx Box photoreactor that was equipped with a Kessil, PR160 427 nm LED Lamp and was then irradiated (100% lamp intensity) for the designated time at room temperature while maintaining active sparging. The resultant reaction mixture was then analyzed directly by LC/MS. Analysis of labeling outcomes using LC/MS was performed either by extracted ion chromatogram intensities (method A) or by integrating the area under the peaks associated with peptide content (method B). These values were totaled, and estimated percentages were assigned according to relative intensities of peaks or ion counts.
Labeling of Chymotrypsinogen with pyridinium salt 2a (Chymotrypsinogen-2a Conjugate). […] The reaction mixture was directly analyzed by LC/MS using method A and was estimated to have proceeded with 90% conversion with a 20.7:8.3:1 mono:di:tri labeled ratio and 4% glutathionylation of all unlabeled and labeled protein content. […]

[2] = biological target: Exenatide (Heloderma suspectum, UniProt P26349); experiment: Photochemical labeling of exenatide with pyridinium salt (General Procedure B, LC/MS); type: biochemical; conditions: trypsin digest
Exenatide, sequence (P26349 48-86 limits assumed): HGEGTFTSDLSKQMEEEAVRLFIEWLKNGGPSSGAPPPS
Procedure: as §1, with “Analysis of labeling outcomes using LC/MS was performed either by extracted ion chromatogram intensities (method A) or by integrating the area under the peaks associated with peptide content (method B). These values were totaled, and estimated percentages were assigned according to relative intensities of peaks or ion counts.” left out
Labeling of Exenatide with Pyridinium Salt 2a (Exenatide-2a Conjugate). […] The resulting reaction mixture was directly analyzed by LC/MS using method A and was estimated to have proceeded in 70% conversion. […]
General Trypsin Digest Protocol B: For non-cystine bridged labeled proteins, a standard trypsin digest was modified as follows. […] The digested mixture was analyzed directly by LC/MS and MS/MS using method C.
Exenatide-2a Conjugate. […] The digested mixture was analyzed directly by LC-MS and MS/MS. […]

COC(=O)N(C)[n+]1c(C)cc(-c2ccc3cc(OC)ccc3c2)cc1C [pyridinium salt 2a, 1-((methoxycarbonyl)(methyl)amino)-4-(6-methoxynapthalen-2-yl)-2,6-dimethylpyridin-1-ium tetrafluoroborate]
Modified Trp [1]: Trp-215; also recorded: Trp-237 | Modified Trp [2]: Trp-025
